The values that follow come from ChEMBL document CHEMBL1201862, “PubChem BioAssay data set” (2004).

Test systems include 786-0; HCT-116; HCT-15; HOP-92; HT-29; K562; LXFL 529; Malme-3M; OVCAR-4; RPMI-8226; SK-MEL-2; U-251; UACC-62; HL-60; OVCAR-3; M19-MEL; Hs-578T; MCF7; MDA-MB-231; MDA-N.
Holding throughout (assay): NCI anticancer screen, dose series, 48 h

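Five concentrations, 48 hours, 96-well plates. Abbreviation: GI50, concentration required for 50% inhibition of growth.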 The source made the active and inactive calls. Cut-off read from the data, not from the text of the source: active = GI50 up to about 1.1 µM and inactive = higher. A value given as a limit tells only on which side of the number the result lay.

Take `O=C(O/C(=C(/N=N/c1ccccc1)c1ccccc1)c1ccccc1)c1ccccc1`: the GI50 is > 100 µM (inactive) in the assay on 786-0; > 100 µM (inactive) in the assay with HCT-116; over 100 µM with HCT-15; 82 µM (inactive) in the assay on HOP-92; > 100 µM (inactive) in the assay on HT-29; 48.1 µM (inactive) in the assay on K562. In addition, the GI50 in the assay with LXFL 529, in the assay with Malme-3M, with OVCAR-4, in the assay on RPMI-8226, in the assay on SK-MEL-2 and in the assay with U-251 was > 100 µM (inactive) in each case. Moreover, the GI50 in the assay on UACC-62 is > 100 µM (inactive).
`COC1OC(CO)C(O)C1N` (configuration not stated): the GI50 in the assay on 786-0 is > 100 µM (inactive); with HCT-116 it was > 100 µM (inactive); in the assay with HCT-15, over 100 µM; in the assay with HL-60, > 100 µM (inactive); in the assay on HOP-92, > 100 µM (inactive); in the assay on HT-29, > 100 µM (inactive). The GI50 in the assay with K562, in the assay with LXFL 529, in the assay on Malme-3M, in the assay with OVCAR-3, in the assay with OVCAR-4 and with U-251 was > 100 µM (inactive) throughout. Moreover, the GI50 with UACC-62 is > 100 µM (inactive).
Take `CCOCN1COCN(C)C1=O`: the GI50 was > 100 µM (inactive) with 786-0; > 100 µM (inactive) with HCT-116; over 100 µM in the assay with HCT-15; > 100 µM (inactive) with HOP-92; > 100 µM (inactive) with HT-29; > 100 µM (inactive) in the assay with K562. Moreover, the GI50 in the assay on M19-MEL, with Malme-3M, in the assay with OVCAR-3, in the assay on OVCAR-4, with RPMI-8226 and with SK-MEL-2 was > 100 µM (inactive) each time. Moreover, the GI50 with U-251 and in the assay on UACC-62 was > 100 µM (inactive) throughout.
Regarding `CC(/C=C/c1ccccc1)=N\N=C(C)\C=C\c1ccccc1`, the GI50 is > 100 µM (inactive) in the assay with 786-0; > 100 µM (inactive) in the assay on HCT-116; over 100 µM in the assay with HCT-15; > 100 µM (inactive) in the assay with HL-60; > 100 µM (inactive) with HT-29; > 100 µM (inactive) in the assay with K562. For the same compound, the GI50 with LXFL 529, with M19-MEL, with Malme-3M, with OVCAR-3, in the assay with OVCAR-4 and in the assay on RPMI-8226 was > 100 µM (inactive) in each case. Moreover, the GI50 in the assay on SK-MEL-2 and with U-251 was > 100 µM (inactive) throughout.
As for `Cc1ccc(/C=C/C(=O)C(C)(C)CN2CCCCC2)cc1`, the GI50 in the assay with 786-0 is 6 µM (inactive); in the assay with HCT-116, 10.5 µM (inactive); with HCT-15 it was 3.76 µM; in the assay with HT-29, 3.24 µM (inactive); in the assay with K562, 2.27 µM (inactive); in the assay with LXFL 529, 6.62 µM (inactive). Besides, the GI50 with M19-MEL is 11.8 µM (inactive); with Malme-3M it was 13.3 µM (inactive); with OVCAR-3 it was 2.81 µM (inactive); with OVCAR-4, 10.1 µM (inactive); in the assay with RPMI-8226, 3.49 µM (inactive); in the assay with SK-MEL-2, 10.7 µM (inactive). The GI50 was 13.7 µM (inactive) in the assay with U-251 and 11.1 µM (inactive) in the assay on UACC-62.
In the case of `CCOC(=O)c1nc2ccc(Cl)cc2c2c1Cc1ccccc1-2`, the GI50 was > 100 µM (inactive) with 786-0; > 100 µM (inactive) in the assay with HCT-116; over 100 µM with HCT-15; > 100 µM (inactive) in the assay with K562; > 100 µM (inactive) with LXFL 529; > 100 µM (inactive) with M19-MEL. For the same compound, the GI50 in the assay with OVCAR-3, with OVCAR-4, with RPMI-8226, in the assay on SK-MEL-2, with U-251 and in the assay on UACC-62 was > 100 µM (inactive) in each case.
Consider `CCN(CC)/[N+]([O-])=N/OCC(C)O` (configuration not stated), for which the GI50 was > 100 µM (inactive) with 786-0; > 100 µM (inactive) in the assay on HCT-116; over 100 µM with HCT-15; > 100 µM (inactive) in the assay on HL-60; > 100 µM (inactive) with HOP-92; > 100 µM (inactive) with HT-29. Also, the GI50 in the assay with K562, with M19-MEL, in the assay with OVCAR-3, with SK-MEL-2, in the assay with U-251 and in the assay on UACC-62 was > 100 µM (inactive) each time.
Regarding `Cn1c(=O)nc2n(-c3cc(Cl)ccc3Cl)c3ccccc3nc-2c1=O`, the GI50 is 8.45 µM (inactive) in the assay on 786-0; 4.33 µM (inactive) in the assay on HCT-116; 3.8 µM in the assay on HCT-15; 1.54 µM (inactive) in the assay on HT-29; 6.4 µM (inactive) with K562; 13.8 µM (inactive) in the assay on LXFL 529. For the same compound, the GI50 in the assay with M19-MEL is 1.35 µM (inactive); in the assay on Malme-3M, 3.78 µM (inactive); in the assay on OVCAR-3, 2.95 µM (inactive); in the assay with OVCAR-4, 4.33 µM (inactive); in the assay on RPMI-8226, 4.71 µM (inactive); in the assay with SK-MEL-2, 5.62 µM (inactive). Besides, the GI50 was 6.4 µM (inactive) in the assay on U-251 and 1.61 µM (inactive) in the assay on UACC-62.
On to `COc1ccc(C#CCC(OC2OC(CO)C(O)C(O)C2O)C(O)c2ccc(OC)c(OC)c2)cc1OC` (configuration not stated), for which the GI50 with 786-0 was > 100 µM (inactive); in the assay with HCT-116 it was > 100 µM (inactive); in the assay with HCT-15, over 100 µM; in the assay with HL-60 it was 61.1 µM (inactive); with HT-29 it was > 100 µM (inactive); with K562 it was 57.4 µM (inactive). Also, the GI50 with LXFL 529, with Malme-3M, with OVCAR-3, in the assay on OVCAR-4, in the assay with RPMI-8226 and in the assay on SK-MEL-2 was > 100 µM (inactive) each time. Moreover, the GI50 with U-251 is > 100 µM (inactive); with UACC-62 it was 61.7 µM (inactive).
Take `CN(C)CCNC(=O)c1ccc2ccc3cccnc3c2n1`: the GI50 in the assay on 786-0 was 11.1 µM (inactive); in the assay on HCT-116, 4.02 µM (inactive); with HCT-15 it was 11.8 µM; with HL-60, 26.4 µM (inactive); in the assay on HOP-92, 16.4 µM (inactive); in the assay on HT-29, 9.14 µM (inactive). The GI50 was 21.5 µM (inactive) in the assay on K562; 11.8 µM (inactive) in the assay with LXFL 529; 13.5 µM (inactive) in the assay with Malme-3M; 24.7 µM (inactive) in the assay on OVCAR-3; 14.5 µM (inactive) in the assay with OVCAR-4; 15.2 µM (inactive) with SK-MEL-2. Further, the GI50 in the assay on U-251 is 16.3 µM (inactive); in the assay with UACC-62 it was 16.6 µM (inactive).
Take `CCN(CC)c1ccc2c(c1)Oc1ccc(N(CC)CC)cc1C21Oc2ccccc2-c2c1c1ccccc1n2CC` (configuration not stated): the GI50 was 4.05 µM (inactive) with 786-0; 1.05 µM (active) in the assay with HCT-116; 3.82 µM in the assay on HCT-15; 1.25 µM (inactive) in the assay on HL-60; 0.302 µM (active) in the assay on HOP-92; 1.22 µM (inactive) with HT-29. The GI50 in the assay with K562 was 0.679 µM (active); in the assay on LXFL 529, 3.36 µM (inactive); with Malme-3M, 1.73 µM (inactive); in the assay on OVCAR-3, 1.25 µM (inactive); with OVCAR-4, 3.58 µM (inactive); in the assay with RPMI-8226, 0.592 µM (active). Also, the GI50 in the assay with U-251 was 1.68 µM (inactive); in the assay on UACC-62, 1.85 µM (inactive).
With `O=S(=O)(Cc1ccccc1)SCc1ccccc1`, the GI50 was 22.7 µM (inactive) with 786-0; 10.1 µM (inactive) with HCT-116; 18.4 µM with HCT-15; 5.07 µM (inactive) in the assay on HL-60; 18.5 µM (inactive) in the assay with HOP-92; 25.4 µM (inactive) with HT-29. The GI50 was 4.91 µM (inactive) in the assay with K562; 22.2 µM (inactive) in the assay with M19-MEL; 27.3 µM (inactive) in the assay with Malme-3M; 23.4 µM (inactive) in the assay with OVCAR-3; 21.2 µM (inactive) with OVCAR-4; 13.3 µM (inactive) in the assay with RPMI-8226. The GI50 was 30.4 µM (inactive) with SK-MEL-2, 26 µM (inactive) in the assay on U-251 and 23.3 µM (inactive) in the assay on UACC-62.
For `NNC(=O)N/N=C1\C(=O)N(c2nccs2)C(=O)C(=O)C1c1nc2ccccc2s1` (configuration not stated), the GI50 in the assay with 786-0 was > 100 µM (inactive); in the assay with HCT-116, > 100 µM (inactive); in the assay on HCT-15, over 100 µM; in the assay with HOP-92, > 100 µM (inactive); in the assay with HT-29, > 100 µM (inactive); in the assay on LXFL 529, > 100 µM (inactive). Besides, the GI50 with M19-MEL, with Malme-3M, in the assay with OVCAR-3, in the assay on OVCAR-4, in the assay with RPMI-8226 and with SK-MEL-2 was > 100 µM (inactive) in each case. Moreover, the GI50 with U-251 and with UACC-62 was > 100 µM (inactive) throughout.
As to `COc1ccc2c(c1)c(=Cc1ccc(N(C)C)cc1)c1cc(-c3ccccc3)[n+](C)n12`, the GI50 in the assay on 786-0 is 0.423 µM (active); with HCT-116, 0.314 µM (active); in the assay on HCT-15, 1.65 µM; in the assay on HL-60 it was 0.284 µM (active); in the assay on HOP-92 it was 0.187 µM (active); in the assay on HT-29, 0.171 µM (active). The GI50 with Hs-578T was 0.124 µM (active); in the assay on K562, 0.214 µM (active); in the assay with MCF7 it was 0.327 µM (active); in the assay with MDA-MB-231, 0.274 µM (active); in the assay with MDA-N, 0.378 µM (active); in the assay with Malme-3M it was 0.343 µM (active). The GI50 is 0.23 µM (active) in the assay on OVCAR-3; 1.28 µM (inactive) with OVCAR-4; 0.182 µM (active) in the assay on RPMI-8226; 0.452 µM (active) in the assay with SK-MEL-2; 0.301 µM (active) with U-251; 0.698 µM (active) in the assay with UACC-62.
Consider `CC1CCC[P+](Cc2ccccc2)(c2ccccc2)CC1` (configuration not stated), for which the GI50 is > 100 µM (inactive) in the assay on 786-0; over 100 µM with HCT-15; 14.8 µM (inactive) in the assay with HL-60; 31.3 µM (inactive) with K562; 15.8 µM (inactive) in the assay with LXFL 529; 27.6 µM (inactive) in the assay on M19-MEL. For the same compound, the GI50 in the assay with Malme-3M was 4.99 µM (inactive); in the assay with OVCAR-4 it was 15.8 µM (inactive); with RPMI-8226 it was 7.23 µM (inactive); in the assay on SK-MEL-2, 21.6 µM (inactive); in the assay on U-251, 77.4 µM (inactive); with UACC-62, 25 µM (inactive).
